Assay results taken from patent EP0292365A2, “4-Amino-5,8-quinazolindione derivatives, process for their preparation and pharmaceutical compositions containing them” (CENTRE NATIONAL DE LA RECHERCHE SCIENTIFIQUE, priority 1987, dated 1988).
Read-outs that look alike come from different tables or passages of the source.

Assays:
cellules L1210 = details: J. Med. Chem. 1983, 26, pp. 1715-1719; cited from earlier work
leucémie murine P388 = details: J. Med. Chem. 1983, 26, pp. 1715-1719; cited from earlier work
leucémie L1210 = details: J. Med. Chem. 1983, 26, pp. 1715-1719; cited from earlier work
sarcome 180 = details: J. Med. Chem. 1983, 26, pp. 1715-1719; cited from earlier work
mélanocarcinome B16 = details: J. Med. Chem. 1983, 26, pp. 1715-1719; cited from earlier work
[1] = J. Med. Chem. 1983, 26, pp. 1715-1719; cited from earlier work
[2] = test system: cellules leucémiques L 1210; test: In vitro cytotoxicity: growth inhibition of L 1210 leukemia cells (Coulter count); format: cell-based, souris; details: Mus musculus, L1210, 48 h, read-out: CI50 après 48 h de culture
Protocol: La détermination de la cytotoxicité in vitro sur les cellules leucémiques L 1210 est la méthode utilisée pour sélectionner les molécules potentiellement antitumorales. Le protocole mis en oeuvre est le suivant :
les cellules leucématiques L 1210 adaptées à la culture en suspension stationnaire sont entretenues dans du milieu RPMI 1640 (commercialisé par Seromed) additionné de 20 % de sérum de cheval décomplémenté, L-glutamine (2 mM), pénicilline (200 U/ml), streptomycine (50µg/ml) et cultivées à 37° C dans une atmosphère à 5 % de C02. Les cultures testées par la méthode de BARILE (BARILE M.F. Mycoplasmal contamination of cell culture, in Contamination in Tissue Culture, J. Fogh (ed.) Acad. Press, 132-156, 1973) sont exemptes de contaminations bactériennes et mycoplasmiques.
Pour les expérimentations, les cellules sont ensemencées à la concentration de 0,8.10^5 cellules/ml et cultivées par 2 ml dans des flacons de 15 ml. Les substances à étudier sont dissoutes dans du DMSO (1 % final) dont on a préalablement vérifié l'innocuité. Des quantités croissantes de produit à tester sont ajoutées au temps 0 et des numérations sont faites au compteur COULTER après 24 et 48 heures de culture. Des séries de contrôle sont effectuées avec des quantités de DMSO équivalentes à celles des séries traitées.
Le temps de doublement des cellules témoins est approximativement de 12 heures.
La cytotoxicité est déterminée d'après l'inhibition de croissance des cellules L 1210, calculée par rapport aux témoins correspondants selon la formule : [formula] • T = concentration de cellules non traitées, • t = concentration de cellules traitées.
La concentration de produit qui diminue la croissance cellulaire de 50 % (Clso) est calculée d'après la méthode des régressions linéaires en coordonnées log-probit.
Lorsque la Cl50 est voisine de la micromolarité (égale ou inférieure à 1 µM), il existe une présomption d'activité antitumorale et les essais in vivo indiqués ci-après sont effectués.
A titre d'exemple, la CI50 mesurée 48 heures après traitement des cellules par les composés de l'invention testés est la suivante : […]

[3] = Determination of toxicity (DLo), single intraperitoneal dose; format: in vivo; details: voie intrapéritonéale, dose unique, souris Swiss, suivies pendant un mois
Text: Ils sont tous administrés, par voie intrapéritonéale (ip), à des souris Swiss de 22 ± 2 g, à doses uniques exprimées en mg/kg de poids corporel. Les animaux sont suivis pendant un mois. La mortalité et les signes de toxicité sont relevés. On détermine ainsi la DLoqui sera la dose maximale utilisée pour la détermination de l'activité antitumorale.

Leucémie P388 = format: in vivo, souris DBA/2; details: for Animaux survivants/ animaux traités / T/C / ΔP (J5-J1): P388, greffe ip (10^6 cel), ip J1, suspension dans le Klucel; for activité antitumorale comparée: compared with the quinazolinedione of J. Med. Chem. 1983, 26, 1715-1719
Text: Afin de tester l'activité antitumorale des composés décrits plus haut, on a utilisé les leucémies murines P388 et L1210, ainsi que le mélanome murin B16. La leucémie P388 est considère comme très sensible et permet une première sélection. D'autre part, une substance ayant une grande activité sur la leucémie L1210 a une grande chance d'être active en clinique humaine (J.M. Venditti; Relevance of transplantable animal tumor systems to the Selection of new agents for clinical trial in pharmacological basis of cancer chemotherapy. The University of Texas ed. Williams and Wilkins, publ. 1975, Baltimore USA).
Cette étude a été réalisée sur 1, 2 ou 3 tumeurs murines expérimentales selon le schéma suivant :
Les produits en solution dans l'eau ou en suspension dans du Klucel sont administrés par voie intrapéritonéale 24 heures après la greffe des cellules tumorales (10 animaux par série), soit en injection unique (J1), soit pendant 9 jours consécutifs (Ji-9). Les morts sont relevés chaque jour à la même heure. La comparaison du temps médian de survie des souris témoins (C) et des souris traitées (T) permet d'apprécier l'activité antitumorale du produit. On adopte comme critère d'activité minimale la valeur de T/C supérieure ou égale à 125 % conformément aux critères établis par GERAN et par l'O.M.S. (Réf. GERAN R.I., GREENBERG N.H., MACDONALD M.M., SCHUMACHER A.M. and ABBOTT B.J. Protocols for screening chemical agents and natural products against animal tumors and other biological systems. Cancer Chemother. Rep. Part 3, 3, 1-103 (1972)).
Lorsque le composé est actif sur plusieurs tumeurs, son administration par d'autres voies que la voie intrapéritonéale (i.p.) est envisagée : orale (p.o) et intraveineuse (i.v). Les résultats des essais effectués à l'aide du composé 63 sont rassemblés dans le tableau IV ci-après.
Les résultats des essais effectués à l'aide des composés de l'invention n° 57 et 59 sont rassemblés dans le tableau IV Bis ci-après.
Dans les tableaux IV et IV Bis, P représentent la variation de poids entre J1 et J5 des animaux traités; lorsque P est supérieure à environ 4 g, cela signifie que la dose à laquelle le composé a été testé est toxique.

[4] = Solubility in water (statement); format: physicochemical

Compound | IC50 [2] [nM] | DLo [3] | Animaux survivants/ animaux traités (Leucémie P388; 5 mg/kg) | T/C (Leucémie P388; 5 mg/kg) [%] | ΔP (J5-J1) (Leucémie P388; 5 mg/kg) | Animaux survivants/ animaux traités (Leucémie P388; 2,5 mg/kg) | T/C (Leucémie P388; 2,5 mg/kg) [%] | ΔP (J5-J1) (Leucémie P388; 2,5 mg/kg) | activité antitumorale comparée (Leucémie P388) | solubilité dans l'eau [4] | also measured
O=C1C(N2CC2)=C(N2CC2)C(=O)c2ncncc21 [bis(aziridinyl-1)-6,7 quinazolinedione-5,8] |  |  |  |  |  |  |  |  |  |  | cytotoxicité in vitro sur les cellules L1210 (cellules L1210): cytotoxique; activité antitumorale in vivo sur la leucémie murine P388 (leucémie murine P388): une certaine activité antitumorale; activité antitumorale in vivo sur la leucémie L1210 (leucémie L1210): ne présente pas d'activité antitumorale significative; activité antitumorale in vivo sur le sarcome 180 (sarcome 180): ne présente pas d'activité antitumorale significative; activité in vivo sur le mélanocarcinome B16 (mélanocarcinome B16): très faible activité; activité par voie orale [1]: n'est pas actif
O=C1C(N2CC2)=C(N2CC2)C(=O)c2c(NCCCCCCCNc3ncnc4c3C(=O)C(N3CC3)=C(N3CC3)C4=O)ncnc21 [compound 54] | 3.7 |  |  |  |  |  |  |  |  |  | 
CN(CCCNc1ncnc2c1C(=O)C(N1CC1)=C(N1CC1)C2=O)CCCNc1ncnc2c1C(=O)C(N1CC1)=C(N1CC1)C2=O [compound 57] | 4.8 | ~2,5 mg/kg | 10/10 | 168 | -4,2 g | 10/10 | 150 | -1,8 g | nettement plus actifs | insolubles dans l'eau | Animaux survivants/ animaux traités (Leucémie P388; 1,25 mg/kg): 06/06; T/C (Leucémie P388; 1,25 mg/kg): 137%; ΔP (J5-J1) (Leucémie P388; 1,25 mg/kg): -1,0 g
O=C1C(N2CC2)=C(N2CC2)C(=O)c2c(NCCOCCOCCNc3ncnc4c3C(=O)C(N3CC3)=C(N3CC3)C4=O)ncnc21 [compound 59] | 18 | ~10 mg/kg | 10/10 | 133 | -1,1 g | 10/10 | 115 | -0,5 g | nettement plus actifs | insolubles dans l'eau | Animaux survivants/ animaux traités (Leucémie P388; 10 mg/kg): 10/10; T/C (Leucémie P388; 10 mg/kg): 135%; ΔP (J5-J1) (Leucémie P388; 10 mg/kg): -1,8 g; Animaux survivants/ animaux traités (Leucémie P388; 15 mg/kg): 07/10; T/C (Leucémie P388; 15 mg/kg): 145%; ΔP (J5-J1) (Leucémie P388; 15 mg/kg): -4,1 g
COC1=CC(=O)c2ncnc(NCCCN3CCC(C4CCN(CCCNc5ncnc6c5C(=O)C(OC)=CC6=O)CC4)CC3)c2C1=O [compound 70] |  |  |  |  |  |  |  |  |  |  | IC50 ([2]; L 1210 cells, 48 heures après traitement): 1300 nM
